# Measurements as given in patent US8119588B2, “Hard surface cleaner compositions of sulfonated estolides and other derivatives of fatty acids and uses thereof” (Stepan Company, priority 2009, dated 2012).
# What was measured:
# [1] = Surface activity by Kruss K12 tensiometer; type: physicochemical; conditions: 25° C. in deionized water
# Description: The surface activity was measured using a Kruss K12 tensiometer at 25° C. in deionized water. The critical micelle concentration (CMC) and the surface tension at CMC are important properties for a surfactant. CMC indicates the minimum concentration of a surfactant that forms aggregates. […] The surface tension indicates how efficient a surfactant can reduce the surface energy of water. Lower surface tension is favorable for wetting and cleansing.
# [2] = Coupling ability (hydrotrope requirement) with nonionic surfactants of different HLB; type: physicochemical
# Description: Sodium xylene sulfonate (SXS) is often used as a hydrotrope to clarify cloudy formulations. […] In Table 2, the measurement of the amount of hydrotrope or surfactant needed to clear the solution was determined.
# The compositions described in Table 2 are made in accordance with the following steps: • Add the water and trisodium citrate and mix until the solution is clear. Add BIO-SOFT® N25-9 slowly until the solution is homogeneous. Add BIO-SOFT® N25-3 and mix until the solution is homogeneous. If the final solution is cloudy, then continue adding the hydrotrope or surfactant and agitate until solution is clear.
CMC [1],Surface Tension @CMC [1],Compound,Final appearance ([2]; after adding hydrotrope or surfactant to cloudy nonionic blend),"hydrotrope requirement (actives) ([2]; amount needed to clear blend of 5% Bio-soft N25-9, 5% Bio-Soft N25-3, 1% trisodium citrate)"
75 mg/L,30 mN/m,"Sodium Laureth Sulfate, 3EO [STEOL CS-330]",–,–
171 mg/L,25 mN/m,"Sodium Laureth Sulfate, 2EO [STEOL CS-230]",–,–
184.8 mg/L,26.3 mN/m,"CCCCCCCCCCCCOS(=O)(=O)[O-].[Na+] [STEPANOL WA-EXTRA, Sodium Lauryl Sulfate]",–,–
–,–,Sodium xylene sulfonate [SXS],clear,5.3 % actives
